Measurements as given in paper PMC6596218, “Anthranilic amide and imidazobenzothiadiazole compounds disrupt Mycobacterium tuberculosis membrane potential” (MedChemComm, 2019).
≈ marks a conversion by molar mass, not a printed value. Entries after “also recorded” stand apart in the source; their conditions may differ. Like-named read-outs stand apart in the source and are kept apart here.

Legend:
M. tuberculosis H37Rv = assay: Minimum bactericidal concentration at pH 4.5 (MBC4.5), luminescence readout; type: cell-based, Mycobacterium tuberculosis; settings: for MBC: Mycobacterium tuberculosis, H37RV, 168 h; for antitubercular activity (by MBC4.5, in words): pH 4.5
HepG2 cells [1] = assay: HepG2 cytotoxicity (CellTiter-Glo, 72 h); type: cell-based; settings: Homo sapiens, mean ± standard deviation, replicates in parentheses
[2] = tested on: M. tuberculosis membrane potential; assay: M. tuberculosis membrane potential (DiOC2 red/green fluorescence ratio); type: cell-based, Mycobacterium tuberculosis; settings: CCCP positive control
[3] = tested on: non-replicating M. tuberculosis; assay: Non-replicating kill kinetics at pH 5.5 (CFU over 21 days); type: cell-based, Mycobacterium tuberculosis; settings: single replicate
HepG2 cells [4] = type: cell-based, human; settings: pH 7.4
Description: Measurement of membrane potential in HepG2 human liver cells (ATCC) was adapted from the method published by Huang.[40] Cells were plated at a density of 50 000 cells per well (100 μL) in black-walled 96-well plates and incubated overnight. Culture medium was replaced with the same volume of assay buffer (80 mM NaCl, 75 mM KCl, 25 mM D-glucose, 25 mM HEPES pH 7.4) containing test compounds at indicated concentrations; CCCP and DMSO served as controls. Plates were incubated at 37 °C for 30 min, followed by incubation with 4 μM DiOC2 for 20 min at RT. Cells were washed 4 times with 150 μL assay buffer, and suspended in 100 μL of assay buffer. A Synergy H1 microplate reader (BioTek Instruments) was used to measure fluorescence (488 nm/530 nm and 488 nm/620 nm). Each test compound was evaluated in at least two replicate experiments.

[5] = median, pH 4.5 phosphate citrate buffer, 7 days, 2-log reduction threshold, replicates in parentheses

Compound	MBC (M. tuberculosis H37Rv; [5])	IC50 (HepG2 cells [1])	further results
O=C(Nc1ccc(Cl)cc1)[C@@H]1CCCC[C@@H]1NS(=O)(=O)c1ccc(Br)cc1 (relative stereo) [Compound 30, cis-2-(4-bromophenylsulfonamido)-N-(4-chlorophenyl)cyclohexanecarboxamide]	> 200 µM	76 ± 12 µM	
O=C(Nc1ccc(Cl)cc1)[C@@H]1CCCC[C@H]1NS(=O)(=O)c1ccc(Br)cc1 (relative stereo) [Compound 31, trans-2-(4-bromophenylsulfonamido)-N-(4-chlorophenyl)cyclohexanecarboxamide]	> 200 µM	67 ± 12 µM	
O=C(Nc1ccc(Cl)cc1Cl)c1ccccc1NS(=O)(=O)c1ccc(Br)cc1 [Compound 1]	6.3 µM (≈ 3.15 µg/mL)	6.2 ± 1.1 µM	disruption of M. tuberculosis membrane potential at pH 5.6 [2]: comparable disruption to CCCP at concentrations one or more orders of magnitude below their MBC4.5; disruption of M. tuberculosis membrane potential at pH 6.8 [2]: depolarized the membrane nearly as strongly as known uncoupler carbonyl cyanide m-chlorophenyl hydrazone (CCCP); MBC4.5 (M. tuberculosis H37Rv; [5]): 6.3 (5) μM
O=C(Nc1ccc(Cl)cc1)c1ccccc1NS(=O)(=O)c1ccc(Br)cc1 [Compound 3, 2-(4-bromophenylsulfonamido)-N-(4-chlorophenyl)benzamide]	50 µM (≈ 23.3 µg/mL)	11 ± 4.7 µM	log kill within 7 days ([3]; pH 5.5, 7 days): > 3 log; log kill at 14 days ([3]; pH 5.5, 14 days): > 4 log
O=C(Nc1ccccc1)c1ccccc1NS(=O)(=O)c1ccc(Br)cc1 [Compound 4, 2-(4-bromophenylsulfonamido)-N-phenylbenzamide]	100 µM (≈ 43.1 µg/mL)	30 ± 3.5 µM	disruption of M. tuberculosis membrane potential at pH 5.6 [2]: comparable disruption to CCCP at concentrations one or more orders of magnitude below their MBC4.5; disruption of HepG2 cell membrane potential (HepG2 cells [4]; human, 30 min): decrease in membrane potential in HepG2 cells comparable in magnitude to CCCP at concentrations significantly below the IC50
CCNC(=O)c1ccccc1NS(=O)(=O)c1ccc(Br)cc1 [Compound 5, 2-(4-bromophenylsulfonamido)-N-ethylbenzamide]	> 200 µM	> 100 µM	
NC(=O)c1ccccc1NS(=O)(=O)c1ccc(Br)cc1 [Compound 6, 2-(4-bromophenylsulfonamido)benzamide]	> 200 µM	> 100 µM	disruption of M. tuberculosis membrane potential at pH 5.6 [2]: did not disrupt M. tuberculosis membrane potential; disruption of HepG2 cell membrane potential (HepG2 cells [4]; human, 30 min): did not disrupt membrane potential at concentrations up to 200 μM
O=C(Nc1ccc(Cl)cc1Cl)c1ccccc1NS(=O)(=O)c1ccccc1 [Compound 7, N-(2,4-dichlorophenyl)-2-(phenylsulfonamido)benzamide]	> 200 µM	19 ± 9.2 µM	
Nc1ccccc1C(=O)Nc1ccc(Cl)cc1Cl [Compound 9, 2-amino-N-(2,4-dichlorophenyl)benzamide]	200 µM (≈ 56.2 µg/mL)	40 ± 2.3 µM	
CCNc1ccccc1C(=O)Nc1ccc(Cl)cc1Cl [Compound 10, N-(2,4-dichlorophenyl)-2-(ethylamino)benzamide]	> 200 µM	> 100 µM	disruption of M. tuberculosis membrane potential at pH 5.6 [2]: caused membrane hyperpolarization; disruption of HepG2 cell membrane potential (HepG2 cells [4]; human, 30 min): did not disrupt membrane potential at concentrations up to 200 μM
O=C(Nc1ccc(Cl)cc1Cl)c1ccccc1NCc1ccc(Br)cc1 [Compound 12, 2-((4-bromobenzyl)amino)-N-(2,4-dichlorophenyl)benzamide]	> 200 µM	> 100 µM	
CC(=O)Nc1ccccc1C(=O)Nc1ccc(Cl)cc1Cl [Compound 13, 2-acetamido-N-(2,4-dichlorophenyl)benzamide]	> 200 µM	> 100 µM	
O=C(Nc1ccccc1C(=O)Nc1ccc(Cl)cc1Cl)c1ccc(Br)cc1 [Compound 14, 2-(4-bromobenzamido)-N-(2,4-dichlorophenyl)benzamide]	> 200 µM	> 100 µM	
CCCCNC(=O)c1ccccc1NS(=O)(=O)c1ccc(Br)cc1 [Compound 16, 2-(4-bromophenylsulfonamido)-N-butylbenzamide]	100 µM (≈ 41.1 µg/mL)	59 ± 0.71 µM	disruption of M. tuberculosis membrane potential at pH 5.6 [2]: disruption at significantly lower concentrations relative to pH 6.8; also recorded: comparable disruption to CCCP at concentrations one or more orders of magnitude below their MBC4.5; also recorded: larger, more consistent degree of separation from DMSO than CCCP; disruption of HepG2 cell membrane potential (HepG2 cells [4]; human, 30 min): decrease in membrane potential in HepG2 cells comparable in magnitude to CCCP at concentrations significantly below the IC50; antitubercular activity (by MBC4.5, in words) (M. tuberculosis H37Rv): showed measurable anti-tubercular activity
O=C(NC1CC1)c1ccccc1NS(=O)(=O)c1ccc(Br)cc1 [Compound 17, 2-(4-bromophenylsulfonamido)-N-cyclopropylbenzamide]	> 200 µM	> 100 µM	
C#CCNC(=O)c1ccccc1NS(=O)(=O)c1ccc(Br)cc1 [Compound 18, 2-(4-bromophenylsulfonamido)-N-(pro-2-yn-1-yl)benzamide]	> 200 µM	83 ± 12 µM	
O=C(NC1CCCCCC1)c1ccccc1NS(=O)(=O)c1ccc(Br)cc1 [Compound 19, 2-(4-bromophenylsulfonamido)-N-cycloheptylbenzamide]	> 200 µM	24 ± 6.4 µM	

Compound	MBC (M. tuberculosis H37Rv; [5])	IC50 (HepG2 cells [1])	further results
O=C(NC1C2CC3CC(C2)CC1C3)c1ccccc1NS(=O)(=O)c1ccc(Br)cc1 (stereo not shown) [Compound 20, N-(adamantan-2-yl)-2-(4-bromophenylsulfonamido)benzamide]	> 200 µM	20 ± 4.2 µM	
O=C(c1ccccc1NS(=O)(=O)c1ccc(Br)cc1)N1CCCCC1 [Compound 21, 4-bromo-N-(2-(piperidine-1-carbonyl)phenyl)benzenesulfonamide]	> 200 µM	> 100 µM	
O=C(c1ccccc1NS(=O)(=O)c1ccc(Br)cc1)N1CCOCC1 [Compound 22, 4-bromo-N-(2-(morpholine-4-carbonyl)phenyl)benzenesulfonamide]	> 200 µM	> 100 µM	
CN1CCN(C(=O)c2ccccc2NS(=O)(=O)c2ccc(Br)cc2)CC1 [Compound 23, 4-bromo-N-(2-(4-methylpiperizine-1-carbonyl)phenyl)benzenesulfonamide]	> 200 µM	> 100 µM	
CN(C(=O)c1ccccc1NS(=O)(=O)c1ccc(Br)cc1)c1ccc(Cl)cc1Cl [Compound 25, 2-(4-bromophenylsulfonamido)-N-(2,4-dichlorophenyl)-N-methylbenzamide]	> 200 µM	60 ± 9.9 µM	disruption of M. tuberculosis membrane potential at pH 5.6 [2]: maintained its disruption of M. tuberculosis membrane potential at pH 5.6; disruption of M. tuberculosis membrane potential at pH 6.8 [2]: showed some capacity to depolarize the membrane, but the effect was at much higher concentrations; disruption of HepG2 cell membrane potential (HepG2 cells [4]; human, 30 min): decrease in membrane potential in HepG2 cells comparable in magnitude to CCCP at concentrations significantly below the IC50; antitubercular activity (by MBC4.5, in words) (M. tuberculosis H37Rv): loss of antitubercular activity
O=C(Nc1ccc(Cl)cc1Cl)c1cccc(NS(=O)(=O)c2ccc(Br)cc2)c1 [Compound 26, 3-(4-bromophenylsulfonamido)-N-(2,4-dichlorophenyl)benzamide]	> 200 µM	34 ± 3.5 µM	antitubercular activity (by MBC4.5, in words) (M. tuberculosis H37Rv): loss of antitubercular activity
O=C(Nc1ccc(Cl)cc1Cl)c1ccccc1S(=O)(=O)c1ccc(Br)cc1 [Compound 27, 2-((4-bromophenyl)sulfonyl)-N-(2,4-dichlorophenyl)benzamide]	> 200 µM	89 ± 18 µM	antitubercular activity (by MBC4.5, in words) (M. tuberculosis H37Rv): loss of antitubercular activity
O=S(=O)(Nc1ccccc1CNc1ccc(Cl)cc1Cl)c1ccc(Br)cc1 [Compound 28, 4-bromo-N-(2-(((2,4-dichlorophenyl)amino)methyl)phenyl)benzenesulfonamide]	> 200 µM	33 µM	
O=S(=O)(Nc1ccccc1COc1ccc(Cl)cc1Cl)c1ccc(Br)cc1 [Compound 29, 4-bromo-N-(2-((2,4-dichlorophenoxy)methyl)phenyl)benzenesulfonamide]	> 200 µM	24 ± 6.4 µM	
O=C(Nc1ccc(Cl)cc1)c1ncccc1NS(=O)(=O)c1ccc(Br)cc1 [Compound 32, 3-(4-bromophenylsulfonamido)-N-(4-chlorophenyl)picolinamide]	> 200 µM	5 ± 1.4 µM	
O=C(Nc1ccc(Cl)cc1)c1cccnc1NS(=O)(=O)c1ccc(Br)cc1 [Compound 33, 2-(4-bromophenylsulfonamido)-N-(4-chlorophenyl)nicotinamide]	> 200 µM	20 ± 5.7 µM	
FC(F)(F)c1nc2ccc3nsnc3c2[nH]1 [Compound 34]	75 µM (≈ 18.3 µg/mL)	70 ± 11 µM	
CCn1cnc2c3nsnc3ccc21 [Compound 35]	75 µM (≈ 15.3 µg/mL)	> 100 µM	
Nc1ccc2[nH]c(C3CCCCC3)nc2c1 [Compound 36]	100 µM (≈ 21.5 µg/mL)	> 100 µM	
Cc1nnc(Sc2ccc3nsnc3c2[N+](=O)[O-])s1 [Compound 37]	19 µM (≈ 5.92 µg/mL)	5.6 ± 3.2 µM	disruption of HepG2 cell membrane potential (HepG2 cells [4]): drop in membrane potential
O=[N+]([O-])c1c(Sc2ccccn2)ccc2nsnc12 [Compound 38]	25 µM (≈ 7.26 µg/mL)	4.8 ± 0.86 µM	disruption of HepG2 cell membrane potential (HepG2 cells [4]): drop in membrane potential
